Reference: article PMC4077236 (Neurochemistry International, 2014)
Several values for one entry are separate records, joined by “and”; a condition that tells them apart may be missing. Equal values may be shown once. Entries after “also recorded” stand apart in the source; their conditions may differ. Read-outs that look alike come from different tables or passages of the source.

Tests used:
[1] = stated without reference; cited from earlier work
human NET [2] = molecular target: T1, human NET (Homo sapiens, UniProt P23975)
Protocol: (§1) For release studies, HEK-SERT, HEK-NET, or HEK-DAT cells were grown overnight on round glass coverslips (5-mm diameter, 40,000 cells per coverslip) placed in a 96-well plate and preloaded with 0.4 μM [^3H]dopamine, 0.1 μM [^3H]MPP+, or 0.4 μM [^3H]5-HT for 20 min at 37 °C in a final volume of 0.1 mL/well. […] A washout period of 40 min established a stable baseline for efflux of radioactivity; thereafter, substances were added and the experiment was started with the collection of fractions (2 min). At the end of the experiment, cells were lysed in 1% SDS and the released radioactivity was quantified by liquid scintillation counting.
(§2) The release of [^3H] labelled substrate was expressed as fractional rate (i.e., the radioactivity released within one fraction was expressed as a percentage of the total radioactivity present in the cells at the beginning of that fraction). Drug-induced release was calculated by subtracting the estimated basal release from total release during the first 8 min of drug exposure and is expressed as a percentage of radioactivity in the cell at the beginning of drug exposure. Data were normalized by using cpm values with no substance present (only solvent) as 100%.

human DAT [3] = molecular target: T2, human DAT (Homo sapiens, UniProt Q01959)
Protocol: (§3) In brief, the cells were washed twice with Krebs–Ringer–HEPES buffer (KHB; composition: 25 mM HEPES·NaOH, pH 7.4, 120 mM NaCl, 5 mM KCl, 1.2 mM CaCl2, and 1.2 mM MgSO4 supplemented with 5 mM D-glucose). Then, the diluted reference and sample compounds were added and incubated for 5 min to allow for equilibration with the transporters. Subsequently, the tritiated substrates were added and the reaction was stopped after 1 min (SERT and DAT) and 3 min (NET), respectively. Cells were lysed with 1% SDS and the released radioactivity was quantified by liquid scintillation counting. All determinations were performed in duplicate or triplicate.
(§4) The release of [^3H] labelled substrate was expressed as fractional rate (i.e., the radioactivity released within one fraction was expressed as a percentage of the total radioactivity present in the cells at the beginning of that fraction). Drug-induced release was calculated by subtracting the estimated basal release from total release during the first 8 min of drug exposure and is expressed as a percentage of radioactivity in the cell at the beginning of drug exposure. Data were normalized by using cpm values with no substance present (only solvent) as 100%. IC50 values were calculated using non-linear regression fits performed with Prism software (GraphPad 5.0, San Diego, CA, U.S.A.). Data transformed into Dixon plots were fitted by linear regression.

human DAT [4] = molecular target: T2, human DAT; assay: cell-based
Protocol: as §3, §4

human NET [5] = molecular target: T1, human NET; assay: cell-based
human DAT [6] = molecular target: T2, human DAT; remark: listed apart in the source
Protocol: as §1, §2

human SERT [7] = molecular target: T3, human SERT (Homo sapiens, UniProt P31645); assay: cell-based
human NET [8] = molecular target: T1, human NET; remark: listed apart in the source
human SERT [9] = molecular target: T3, human SERT
Protocol: as §1, §2

human SERT [10] = molecular target: T3, human SERT; remark: listed apart in the source
[11] = after levamisole administration; ref Hess et al., 2013; cited from earlier work
[12] = ref Lin and Tsai, 2006; cited from earlier work
in vivo = settings: human, plasma, po, 50 mg
[13] = IC50 uptake inhibition DAT in the absence of cocaine, allosteric interaction experiment, dopamine uptake
[14] = IC50 uptake inhibition DAT, HEK293 stably expressing human DAT, substrate [3H]dopamine 0.1 μM, 5 min preincubation
[15] = IC50 uptake inhibition NET in the absence of cocaine

T2 sequence (Q01959 whole entry): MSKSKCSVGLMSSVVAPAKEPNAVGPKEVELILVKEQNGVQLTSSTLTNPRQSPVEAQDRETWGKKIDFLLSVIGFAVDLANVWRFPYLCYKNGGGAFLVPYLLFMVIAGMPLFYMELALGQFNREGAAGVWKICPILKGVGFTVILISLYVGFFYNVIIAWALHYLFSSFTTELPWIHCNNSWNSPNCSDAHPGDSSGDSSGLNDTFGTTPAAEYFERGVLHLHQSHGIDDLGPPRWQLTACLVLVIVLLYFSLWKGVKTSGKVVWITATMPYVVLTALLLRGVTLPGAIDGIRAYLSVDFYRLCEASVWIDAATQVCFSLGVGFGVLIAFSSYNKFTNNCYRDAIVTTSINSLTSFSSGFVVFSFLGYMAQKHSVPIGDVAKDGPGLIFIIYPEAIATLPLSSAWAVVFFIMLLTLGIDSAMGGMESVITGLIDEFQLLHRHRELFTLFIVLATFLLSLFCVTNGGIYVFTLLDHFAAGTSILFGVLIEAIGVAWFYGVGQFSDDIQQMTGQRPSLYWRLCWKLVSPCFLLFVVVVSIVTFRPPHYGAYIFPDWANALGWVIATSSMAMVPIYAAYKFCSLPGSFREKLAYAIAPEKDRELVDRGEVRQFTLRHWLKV
T1 sequence (P23975 whole entry): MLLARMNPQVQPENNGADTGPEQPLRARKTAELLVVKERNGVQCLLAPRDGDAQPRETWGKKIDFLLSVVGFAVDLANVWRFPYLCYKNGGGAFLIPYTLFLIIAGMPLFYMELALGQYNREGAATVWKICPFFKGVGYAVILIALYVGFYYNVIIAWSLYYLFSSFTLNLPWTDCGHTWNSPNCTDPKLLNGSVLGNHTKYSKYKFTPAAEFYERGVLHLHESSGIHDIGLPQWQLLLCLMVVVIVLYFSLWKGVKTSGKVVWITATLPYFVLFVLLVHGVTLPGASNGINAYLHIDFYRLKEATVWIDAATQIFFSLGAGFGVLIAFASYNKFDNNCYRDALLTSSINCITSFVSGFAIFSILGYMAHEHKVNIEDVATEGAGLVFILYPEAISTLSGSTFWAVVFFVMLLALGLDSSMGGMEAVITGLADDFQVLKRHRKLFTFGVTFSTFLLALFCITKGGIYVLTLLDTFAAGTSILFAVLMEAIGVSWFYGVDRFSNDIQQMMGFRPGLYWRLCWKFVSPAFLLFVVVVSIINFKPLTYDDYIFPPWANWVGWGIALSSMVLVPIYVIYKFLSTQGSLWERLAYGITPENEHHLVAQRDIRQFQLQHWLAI
T3 sequence (P31645 whole entry): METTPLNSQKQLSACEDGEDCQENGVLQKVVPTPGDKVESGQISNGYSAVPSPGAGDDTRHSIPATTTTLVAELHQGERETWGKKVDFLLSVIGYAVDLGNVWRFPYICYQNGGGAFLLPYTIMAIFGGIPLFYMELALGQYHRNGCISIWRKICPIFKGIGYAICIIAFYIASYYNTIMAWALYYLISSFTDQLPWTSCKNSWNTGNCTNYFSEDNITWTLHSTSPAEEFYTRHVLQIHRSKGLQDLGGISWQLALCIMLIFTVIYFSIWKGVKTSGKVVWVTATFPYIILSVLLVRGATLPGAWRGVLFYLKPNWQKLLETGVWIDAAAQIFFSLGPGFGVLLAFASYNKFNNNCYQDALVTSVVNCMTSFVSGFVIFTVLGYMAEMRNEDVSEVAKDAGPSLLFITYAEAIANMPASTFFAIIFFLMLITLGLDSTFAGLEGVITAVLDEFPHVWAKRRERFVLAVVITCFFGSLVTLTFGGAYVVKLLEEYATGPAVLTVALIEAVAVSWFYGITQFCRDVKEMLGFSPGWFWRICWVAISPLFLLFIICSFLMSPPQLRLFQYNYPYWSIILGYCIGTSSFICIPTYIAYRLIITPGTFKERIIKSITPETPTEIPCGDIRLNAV

For NC1=NCC(c2ccccc2)O1 (stereo not drawn) [aminorex], the pKa [1] is given as 7.4, the “substrate efflux NET” value (human NET [2]; 3 or 10 μM aminorex, presence and absence of 10 μM monensin) is given as “slight increase; also recorded: only a slight response” and the “Dixon plot: binding relative to cocaine at DAT” value (human DAT [3]; uptake inhibition with one inhibitor varied at fixed concentration of the other) is given as “mutually exclusive manner”. For the same compound, the IC50 (human DAT [4]; [13]) was 0.71 ± 1.05 µM, the IC50 (human DAT [4]; [14]) was 0.85 µM and 0.855 µM and < 1 µM and the IC50 (human NET [5]; IC50 uptake inhibition NET) was 0.33 µM and < 1 µM. For the same compound, the IC50 (human NET [5]; [15]) was 1.97 ± 1.2 µM, the “substrate efflux DAT” value (human DAT [6]; 50 μM aminorex, presence and absence of 10 μM monensin) was “no releasing effect; also recorded: completely absent” and the IC50 (human SERT [7]; IC50 uptake inhibition SERT) was 18.4 ± 1.12 µM. The IC50 (human SERT [7]; IC50 uptake inhibition SERT in the absence of cocaine) was 26.3 ± 1.03 µM, the “Dixon plot: binding relative to cocaine at NET” value (human NET [8]) was “mutually exclusive manner” and the “substrate efflux SERT” value (human SERT [9]) was “strong release; also recorded: significant substrate release”. The “Dixon plot: binding relative to cocaine at SERT” value (human SERT [10]) was “mutually exclusive manner”, the “SERT inhibited at higher concentrations than NET and DAT” value (human SERT [10]) was 20 fold and the “SERT inhibitory effect compared to cocaine” value (human SERT [10]) was “more than 10 fold”. For the same compound, the “time aminorex could be detected in human urine” value [11] was “up to 54 h”.
For c1ccc([C@H]2CN3CCSC3=N2)cc1 [levamisole], the pKa [1] is given as 7, the “substrate efflux NET” value (human NET [2]; 100 μM levamisole, absence of monensin, [3H]MPP+ preloaded) is given as “slight increase; also recorded: slight increased substrate efflux” and the “less potent than cocaine in blocking dopamine uptake” value (human DAT [3]; relative to cocaine) is given as 300 fold. The IC50 (human DAT [4]; [13]) was 476 ± 1.54 µM, the IC50 (human DAT [4]; [14]) was 209.9 ± 1.31 µM and the “blood–brain barrier permeation” value [12] was “readily permeates the blood–brain barrier”. The IC50 (human NET [5]; IC50 uptake inhibition NET) was 74.5 µM, the IC50 (human NET [5]; [15]) was 521 ± 2.3 µM and the “substrate efflux DAT” value (human DAT [6]; 100 μM levamisole, absence of monensin, [3H]dopamine preloaded) was “no efflux was observed; also recorded: could not detect substrate efflux”. The “less potent than cocaine in blocking norepinephrine uptake” value (human NET [8]) was 100 fold and the Cmax (in vivo) was roughly 1500 nM.
